Assays:
Caenorhabditis elegans = assay: In vivo toxicity C. elegans survival assay; settings: for survival rate: C. elegans, 50 µg/mL (highest tested concentration), 48 h
Protocol: 3. Bioactivity and Toxicity Assays […]
Compounds were dissolved in DMSO at a concentration of 50 mg/mL, and the highest tested concentration was 250 µg/mL. […]
In vivo toxicity C. elegans assay: The C. elegans survival assay was carried out as described previously with some modifications. 8 In brief, synchronized worms (L4 stage) were suspended in a medium containing 95% M9 buffer (3.0 g of KH2PO4, 6.0 g of Na2HPO4, 5.0 g of NaCl, and 1 mL of 1 M MgSO4 × 7H2O in 1 L of water), 5% LB (Luria-Bertani) broth (Oxoid, Basingstoke, UK), and 10 μg of cholesterol (Sigma -Aldrich, Munich, Germany) per mL. The experiment was carried out in 96 -well flat -bottomed microtiter plates (Sarstedt, Nümbrecht, Germany) in the final volume of 100 μL per wel l. 25 μL of this suspension of nematodes (25 –35 nematodes) were transferred to the wells of a 96 -well microtiter plate, where 50 μL of the medium was previously added. Next, 25 μL of a solvent control (DMSO) or 25 μL of a concentrated solution was added to the test wells. The final concentrations of the compounds were 50, 25, 10, and 5 µg/mL. Subsequently, the plates were incubated at 25 °C for 2 days. The fraction of dead worms was determined after 48 h by counting the number of dead worms and the total number of worms in each well, using a stereomicroscope (SMZ143-N2GG, Motic, Germany).
As a negative control experiment, nematodes were exposed to the medium containing 1% […]
Ergosterol biosynthesis assay: Ergosterol levels were measured according to the published procedure with some minor modifications. 10 Briefly, a sing le C. albicans colony from an overnight Sabouraud dextrose agar plate was used to inoculate 50 ml of Sabouraud dextrose broth containing 0.5 MIC concentrated compounds. Incubation was performed for 18 h at 37 °C on the rotary shaker at 180 rpm. Cells were harvested by centrifugation at 3000 rpm for 5 min and washed once with sterile distilled water. The net wet weight of the cell pellet was determined. Three milliliters of 25% alcoholic potassium hydroxide solution (25 g of KOH and 35 ml of sterile distill ed water, brought to 100 ml with 100% ethanol), was added to each pellet and vortex mixed for 1 min and incubated in an 85 °C water bath for 1 h. Tubes were cooled to room temperature and extraction of sterols was done with the addition of a mixture of 1 ml of sterile distilled water and 3 ml of n-heptane followed by vigorous vortex mixing for 3 min. The heptane layer was used for spectrophotometrically measuring ergosterol concentrations by scanning absorbance between 240 nm and 300 nm using Ultrospec 3300pro 573 (Amer sham Biosciences, Amersham, UK).

[1] = test system: human lung fibroblast cell line (MRC-5); assay: Cytotoxicity evaluation by MTT assay; format: cell-based; settings: for cell survival: MRC-5 cells, 10 µg/mL, 48 h
Text: 3. Bioactivity and Toxicity Assays
Antimicrobial assay: According to the standard broth micro-dilution assays, following the Standards of European Committee on Antimicrobial Susceptibility Testing (v 7.3.1: Method for the determination of broth dilution minimum inhibitory concentrations of antifungal agents for yeasts) for Candida spp., and according to the standard broth micro-dilution assays, recommended by the National Committee for Clinical Laboratory Standards (M07-A8) for bacteria MIC values of compounds were determinate. Compounds were dissolved in DMSO at a concentration of 50 mg/mL, and the highest tested concentration was 250 µg/mL. The inoculums were 1x10^5 colony forming units (CFU/mL), for Candida species, and bacteria species, 5x10^5 colony forming units (CFU/mL). The MIC value was recorded as the lowest concentration that inhibited the growth after 24 h at 37 °C. Additionally, 5 µL from each well of 96 well plates was transferred to Luria Agar (LA) plates for bacteria and Sabouraud agar (SAB) plates for Candida spp. and incubated for an additional 24 h at 37 °C, to determine MBC (Minimum bactericidal/fungicidal concentration) values. In Table 1. Are labeled compounds showing a difference in MBC and previously determined MIC values.
Cytotoxicity evaluation: Antiproliferative activity was tested by MTT assay (3-(4,5-dimethylthiazol-2-yl)-2,5-diphenyltetrazoliumbromide) on a human lung fibroblast cell line (MRC-5; ATCC collection). Pre-grown (24 h) cell monolayers (1x10^4 cells per well) in RPMI 1640 medium supplemented with 100 μg/mL streptomycin, 100 U/mL penicillin, and 10% (v/v) FBS (all from Sigma, Munich, Germany) containing the tested compounds at concentrations ranging from 5 to 20 μg/mL were incubated in a humidified atmosphere of 95% air and 5% CO2 at 37 °C for 48 h. The cell viability (extent of MTT reduction) was measured spectrophotometrically at 540 nm using the Epoch 2000 multiplate reader, and the cell survival was expressed as a percentage of the control (untreated cells). Cytotoxicity was expressed as the concentration of the compound inhibiting cell growth by 50% (IC 50). […]

CC1=C(O)C(=O)C(C)=C(C(=O)OCc2ccccc2)C1=O [compound 41]
survival rate (Caenorhabditis elegans): over 90% | cell survival [1]: over 60% | selectivity index (SI) ([1]; cytotoxicity versus antibiotic activity, calculation not described): 0.77

CC1=C(O)C(=O)C(C)=C(C(=O)OCCCC(C)C)C1=O [compound 36]
in vivo toxicity (in words) (Caenorhabditis elegans; C. elegans model): comparatively lower in vivo toxicity | survival rate (Caenorhabditis elegans): over 90% | cell survival [1]: over 60%

Reference: PMC12227560, “Total synthesis of a sorrentanone ester library and evaluation of its antimicrobial potential” (Scientific Reports, 2025)
